# Measured values from patent US20030175979A1, “System and method for characterizing metabolites using hydrogen/deuterium exchange” (priority 2002, published 2003).
# “Also recorded” adds a separate entry of the source.
# Tests used:
# [1] = Metabolite profile in rabbit plasma after oral administration of PD 0200126 (LC-UV/MS); type: in vivo; conditions: 300 mg/kg oral PD 0200126, UV 280 nm and LC-MS
# Experimental: In Vivo Studies. To obtain plasma samples, blood from rabbits was collected at various time points following a 300 mg/kg oral administration of PD 0200126. Plasma was precipitated by addition of 3 volumes of acetonitrile to 1 volume of plasma and then centrifuged. The resulting supernatant was decanted off, dried, and subsequently reconstituted in the mobile phase solvent (described below) prior to injection in the HPLC. A 100-μL aliquot was injected for each experiment (run).
# Apparatus and Conditions. An Agilent 1100 HPLC system (Agilent Technologies, Wilmington, Del.), including pumps, autoinjector, and UV detector, was used to separate the metabolites. Separation of the metabolites was achieved using a Metasil AQ guard column (Metachem Technologies, Torrance, Calif.) and a 150 mm×4.6 mm MetaChem Polaris C-18 reversed-phase HPLC column (Metachem Technologies). The mobile phase comprised 20-mM ammonium acetate in water adjusted to pH 4 with acetic acid (Solvent A) and acetonitrile (Solvent B), and was maintained at a constant flow rate (1 mL/min) throughout each run. Gradient elution of the metabolites was achieved using programmed stepwise changes of solvent A/B ratios of 95/5, 50/50, 25/75, 5/95, and 95/5 at 0, 40, 50, 60, and 75 min, respectively.
# (§1) After passing through the UV detector (280 nm), the HPLC effluent was split so that 20%-30% of the flow was introduced into the mass spectrometer via an ESI source supplied with the mass spectrometer, while 70%-80% was diverted to the radioactivity detector (β-RAM, IN/US, Tampa, Fla.). The analog output from the UV detector, along with the MS signal, were recorded in real time by the data system provided with the mass spectrometer (Xcalibur V 1.2, ThermoFinnigan). A separate software program (Win-Flow V 1.5, IN/US, Tampa, Fla.) was used to control the β-RAM and to collect the analog output from the β-RAM. The β-RAM data was integrated to obtain semi-quantitative information about the metabolites and the unchanged drug. The delay in response between the radioactivity detector and the MS was 0.2 min -0.4 min with the MS response being recorded first.
# Trace amounts of PD 0200126 and M10 were also observed at m/z 425 and 409, respectively. Metabolites M1-M6 were characterized in a separate study involving rat and mouse hepatocytes.
# dog liver hepatocytes = test: Incubation of [14C]PD 0200126 with dog hepatocytes, radiochromatographic metabolite profile; type: in vitro ADME; conditions: [14C]PD 0200126 incubated with dog hepatocytes for 180 minutes; flow-through radioactivity detector
# Experimental: In Vitro Study. A proposed metabolite M2 (PD 0200126-glucuronide) was formed following incubation of [^14C]PD 0200126 with dog liver hepatocytes for 180 minutes.
# Apparatus and Conditions. An Agilent 1100 HPLC system (Agilent Technologies, Wilmington, Del.), including pumps, autoinjector, and UV detector, was used to separate the metabolites. Separation of the metabolites was achieved using a Metasil AQ guard column (Metachem Technologies, Torrance, Calif.) and a 150 mm×4.6 mm MetaChem Polaris C-18 reversed-phase HPLC column (Metachem Technologies). […]
# as §1, with “A separate software program (Win-Flow V 1.5, IN/US, Tampa, Fla.) was used to control the β-RAM and to collect the analog output from the β-RAM.” left out, “first. […]” for “first.”
Compound,abundance of drug/metabolite in plasma (UV component / extracted ion chromatogram) [1],share of the total radioactivity associated with the component (dog liver hepatocytes),abundance of drug/metabolite in plasma (UV component / extracted ion chromatogram) ([1]; 300 mg/kg)
"NS(=O)(=O)c1ccc(-c2ccc(Br)cc2)cc1 [Metabolite M8, bromo-biphenylsulfonamide]",prominent UV components,,
CC(C)[C@@H](NS(=O)(=O)c1ccc(-c2ccc(Br)cc2)cc1)C(N)=O [Metabolite M10],,,Trace amounts; also recorded: minor UV component
"CC(C)[C@@H](NS(=O)(=O)c1ccc(-c2ccc(Br)cc2)cc1)C(=O)NOC1OC(C(=O)O)C(O)C(O)C1O (stereo partly drawn) [Metabolite M2, PD 0200126-glucuronide]",,more than 90%,

# The next lines start with results.
abundance of drug/metabolite in plasma (UV component / extracted ion chromatogram) [1],share of the total radioactivity associated with the component (dog liver hepatocytes),Compound,abundance of drug/metabolite in plasma (UV component / extracted ion chromatogram) ([1]; 300 mg/kg)
Trace amounts,,"CC(C)[C@@H](NS(=O)(=O)c1ccc(-c2ccc(Br)cc2)cc1)C(=O)NO [PD 0200126, 2-(4′-bromo-biphenyl-4-sulfonylamino)-N-hydroxy-3-methyl-butyramide]",
prominent UV components,minor amounts,"CC(C)[C@@H](NS(=O)(=O)c1ccc(-c2ccc(Br)cc2)cc1)C(=O)O [Metabolite M9, PD 0200126-carboxylic acid]",
